The values below come from US6462205B1, “Method of preparing benzofurandione oxime derivatives” (Bayer Aktiengesellscahft, priority 1999, dated 2002).

The nature of the series: log p of the isomers of 3-methoximino-2-oxo-2,3-dihydrobenzofuran. In kind it is physicochemical. The conditions noted are these: product of Example 5, value per isomer.

Read-outs that look alike come from different tables or passages of the source.

Take `CON=C1C(=O)Oc2ccccc21` (single isomer, unassigned; isomer 3) [E isomer, 3-Methoximino-2-oxo-2,3-dihydrobenzofuran]: for the setting “read-out: log p”, the logP is 2.2. With `CON=C1C(=O)Oc2ccccc21` (single isomer, unassigned; isomer 3) [Z isomer, 3-Methoximino-2-oxo-2,3-dihydrobenzofuran], the logP stood at 2.14.
